Assay results: patent publication US20240426832A1, “METHODS OF IDENTIFYING COMPOUNDS FOR INDUCING PROTEIN-PROTEIN INTERACTION” (Oncopia Therapeutics, Inc. d/b/a/ SK Life Science Labs, priority 2023, published 2024)

What was measured:
RBM39 and DCAF15 = RBM39 and DCAF15 (Homo sapiens, UniProt Q14498+Q66K64); conditions: stated as known; cited from earlier work
IKZF2-CRBN [1] = biological target: T1, IKZF2-CRBN (Homo sapiens, UniProt Q96SW2+Q9UKS7); conditions: stated as known; cited from earlier work
T1 sequence (Q9UKS7 whole entry): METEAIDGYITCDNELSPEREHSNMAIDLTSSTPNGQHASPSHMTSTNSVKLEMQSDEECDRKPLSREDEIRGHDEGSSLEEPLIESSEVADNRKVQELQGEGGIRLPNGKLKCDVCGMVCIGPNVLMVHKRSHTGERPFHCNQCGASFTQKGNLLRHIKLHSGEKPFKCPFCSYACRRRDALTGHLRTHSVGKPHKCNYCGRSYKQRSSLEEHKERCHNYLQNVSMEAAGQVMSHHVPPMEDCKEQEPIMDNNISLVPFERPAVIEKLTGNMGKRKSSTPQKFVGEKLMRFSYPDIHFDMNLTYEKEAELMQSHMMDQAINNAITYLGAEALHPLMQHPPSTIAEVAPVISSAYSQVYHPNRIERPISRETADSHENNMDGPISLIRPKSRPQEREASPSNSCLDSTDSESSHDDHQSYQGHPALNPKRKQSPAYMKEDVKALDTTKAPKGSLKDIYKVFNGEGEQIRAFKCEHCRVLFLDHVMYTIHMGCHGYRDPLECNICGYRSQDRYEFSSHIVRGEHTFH
T1 sequence (Q96SW2 whole entry): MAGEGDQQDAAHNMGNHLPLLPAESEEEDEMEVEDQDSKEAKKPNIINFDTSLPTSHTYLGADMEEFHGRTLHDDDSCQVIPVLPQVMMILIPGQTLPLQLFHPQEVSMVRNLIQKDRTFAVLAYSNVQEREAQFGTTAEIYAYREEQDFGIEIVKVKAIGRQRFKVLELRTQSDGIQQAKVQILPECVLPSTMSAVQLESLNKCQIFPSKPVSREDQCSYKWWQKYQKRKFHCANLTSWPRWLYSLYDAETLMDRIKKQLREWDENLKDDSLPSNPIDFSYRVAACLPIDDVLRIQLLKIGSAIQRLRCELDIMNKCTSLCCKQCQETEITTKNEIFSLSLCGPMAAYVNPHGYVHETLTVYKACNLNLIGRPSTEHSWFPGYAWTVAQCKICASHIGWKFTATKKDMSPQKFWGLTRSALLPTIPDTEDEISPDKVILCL

IKZF2-CRBN [2] = biological target: T1, IKZF2-CRBN; assay: glue screening assay (tripartite split-GFP fluorescence), GFP11-tagged IKZF2 and GFP10-tagged CRBN; assay type: binding; conditions: protein mix GFP1-9, GFP11-IKZF2, IKZF2-GFP11, GFP10-CRBN, time-course, FIG. 5
Protocol: In another version of the assay, the glue screening assay mixture is assembled in a volume of 2 μL assay buffer (50 mM HEPES buffer, pH 7.5, 150 mM KCl, 4 mM DTT, 0.1 mg/mL BSA, 0.25 mM octyl-beta-glucopyranoside, 5% glycerol with 0.3 μg GFP1-9, 0.05 μg of GFP11-tagged IKZF2, and 0.3 μg GFP10-tagged CRBN. Various variations of the buffer provide consistent signal in this assay (0.1-1 mg/mL BSA, 0-10% glycerol, 0-1 mM octyl-beta-glucopyranoside). Similar to the previous version, two different versions of GFP11-tagged IKZF2 are tested with GFP11 fused to N- and C-termini of IKZF2 (GFP11-IKZF2 and IKZF2-GFP11, respectively). Likewise, two different versions of GFP10-tagged CRBN are tested: GFP10 fused to the N-terminus of CRBN (GFP10-CRBN) and GFP10 fused to the C-terminus of CRBN (CRBN-GFP10). Concentrations correspond to 5 μM of GFP (1-9), 1.25 μM of each of the IKZF2 constructs and 0.5 μM of each of the two CRBN constructs. Concentrations of the IKZF2 and CRBN proteins were optimized for best signal to background by titrating the proteins against each other.
For primary screens, these five different proteins (GFP1-9, GFP11-IKZF2, IKZF2-GFP11, GFP10-CRBN, and CRBN-GFP10) are combined in the assay buffer and added to the plates containing different compound pools. […]

Sequence of RBM39 and DCAF15 (Q14498 whole entry, species assumed): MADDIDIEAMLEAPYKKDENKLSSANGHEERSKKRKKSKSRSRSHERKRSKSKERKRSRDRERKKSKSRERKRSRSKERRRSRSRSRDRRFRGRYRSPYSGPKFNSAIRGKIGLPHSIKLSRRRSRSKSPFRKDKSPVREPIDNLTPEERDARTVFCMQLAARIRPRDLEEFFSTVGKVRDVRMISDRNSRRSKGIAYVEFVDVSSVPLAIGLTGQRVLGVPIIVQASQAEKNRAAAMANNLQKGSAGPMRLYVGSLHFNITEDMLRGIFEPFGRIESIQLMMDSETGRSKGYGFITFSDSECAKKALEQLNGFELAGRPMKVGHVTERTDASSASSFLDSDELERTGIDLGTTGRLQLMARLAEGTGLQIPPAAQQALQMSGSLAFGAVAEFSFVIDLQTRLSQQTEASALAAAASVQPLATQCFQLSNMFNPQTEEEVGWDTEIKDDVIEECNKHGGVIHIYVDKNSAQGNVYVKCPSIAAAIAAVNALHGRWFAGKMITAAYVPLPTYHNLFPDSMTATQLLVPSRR
Sequence of RBM39 and DCAF15 (Q66K64 whole entry, species assumed): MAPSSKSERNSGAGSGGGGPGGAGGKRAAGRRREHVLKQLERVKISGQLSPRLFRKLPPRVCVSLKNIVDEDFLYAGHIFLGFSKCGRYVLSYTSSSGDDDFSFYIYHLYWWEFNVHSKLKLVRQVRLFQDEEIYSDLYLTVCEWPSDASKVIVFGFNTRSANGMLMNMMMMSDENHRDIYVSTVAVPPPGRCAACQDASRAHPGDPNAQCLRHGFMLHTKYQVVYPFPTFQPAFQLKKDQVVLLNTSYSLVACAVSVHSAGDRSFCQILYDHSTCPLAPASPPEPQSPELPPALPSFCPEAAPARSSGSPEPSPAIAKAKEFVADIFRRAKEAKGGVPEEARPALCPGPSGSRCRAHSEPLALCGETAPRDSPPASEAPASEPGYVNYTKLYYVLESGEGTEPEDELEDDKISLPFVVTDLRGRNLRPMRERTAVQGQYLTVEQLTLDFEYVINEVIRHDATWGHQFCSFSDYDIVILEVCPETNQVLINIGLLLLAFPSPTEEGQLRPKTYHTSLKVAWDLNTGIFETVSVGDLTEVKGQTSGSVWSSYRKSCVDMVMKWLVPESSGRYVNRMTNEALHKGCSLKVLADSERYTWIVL

SMILES	glue activity for protein pair RBM39 and DCAF15 (known) (RBM39 and DCAF15)	glue activity for IKZF2-CRBN protein pair (known) (IKZF2-CRBN [1])	GFP signal over time compared to the DMSO control (IKZF2-CRBN [2])
Nc1ccc(S(=O)(=O)Nc2cnc3c(Cl)cccc3n2)cc1	known glues	devoid of glue activity	indistinguishable from the DMSO control
NS(=O)(=O)c1ccc(S(=O)(=O)Nc2cccc3c(Cl)c[nH]c23)cc1 [Indisulam]	known glues	devoid of glue activity	indistinguishable from the DMSO control
